Experimental data as given in ChEMBL document CHEMBL5143523, “Construction and activity evaluation of novel benzodioxane derivatives as dual-target antifungal inhibitors” (Eur J Med Chem, 2022).
Converted amounts (≈) assume the structure as drawn. The source made the active and inactive calls. The calls are words filed in the database; no cut-off is given here.

Tests used:
[1] = system: Candida albicans; assay: Antifungal activity against Candida albicans ATCC SC5314 assessed as decrease in ergosterol content at 4 ug/ml incubated for 48 hrs by LC-MS analysis (reference value: 90.6%); assay type: functional; set-up: scale not given: the % may be the effect or the level left; settings: dose 4 µg/ml
[2] = system: Candida albicans; assay: Antifungal activity against fluconazole resistant Candida albicans strain 901 assessed as decrease in fungal cell density at 4 ug/ml by fluorescence microscopy; assay type: functional, organism-based; settings: dose 4.0 µg/ml
[3] = system: Candida albicans; assay: Induction of apoptosis in Candida albicans ATCC SC5314 cells assessed as necrotic cells at 8 ug/ml incubated for 72 hrs by Annexin V-FITC/PI staining based flow cytometry method (reference value: 3.76%); assay type: functional; settings: dose 8 µg/ml
[4] = system: Candida albicans; assay: Induction of apoptosis in Candida albicans ATCC SC5314 cells assessed as live cells at 8 ug/ml incubated for 72 hrs by Annexin V-FITC/PI staining based flow cytometry method (reference value: 95.56%); assay type: functional; settings: dose 8 µg/ml
[5] = system: Candida albicans; assay: Antifungal activity against Candida albicans ATCC SC5314 assessed as change in squalene level at 4 ug/ml incubated for 48 hrs by LC-MS analysis; assay type: functional; settings: dose 4 µg/ml
[6] = system: Candida albicans; assay: Antifungal activity against fluconazole resistant Candida albicans strain CaR assessed as fungal growth inhibition measured after 72 hrs by CLSI protocol based liquid medium dilution method; assay type: functional
[7] = system: Mus musculus; assay: In vivo antifungal activity against Candida albicans ATCC SC5314 infected mouse assessed as increase in body weight at 4 mg/kg, ip administered ever other day for 12 days; assay type: functional, organism-based; settings: time 12.0 day
[8] = Toxicity in mouse infected with Candida albicans ATCC SC5314 assessed as pathological changes in lung at 4 mg/kg, ip administered ever other day for 12 days by hematoxylin and eosin staining based histopathological analysis; assay type: organism-based; settings: in vivo, 288 h, time 12 day
[9] = Toxicity in mouse infected with Candida albicans ATCC SC5314 assessed as pathological changes in kidney at 4 mg/kg, ip administered ever other day for 12 days by hematoxylin and eosin staining based histopathological analysis; assay type: organism-based; settings: in vivo, 288 h, time 12 day
[10] = system: Candida albicans; assay: Antifungal activity against fluconazole resistant Candida albicans strain 901 assessed as fungal growth inhibition measured after 72 hrs by CLSI protocol based liquid medium dilution method; assay type: functional
[11] = system: Mus musculus; assay: In vivo antifungal activity against Candida albicans ATCC SC5314 infected mouse model assessed as disappearance of pathogenic fungi at 4 mg/kg, ip administered ever other day for 12 days by hematoxyin-eosin staining based microscopic analysis; assay type: functional, organism-based; settings: time 12.0 day
[12] = Drug uptake in fluconazole resistant Candida albicans strain 901 at 4 ug/ml by fluorescence microscopy; assay type: ADME; settings: dose 4 µg/ml
[13] = system: Mus musculus; assay: In vivo antifungal activity against Candida albicans ATCC SC5314 infected mouse model assessed as regular arrangement of intercellular space at 4 mg/kg, ip administered ever other day for 12 days by hematoxyin-eosin staining based microscopic analysis; assay type: functional, organism-based; settings: time 12.0 day
[14] = system: Candida albicans; assay: Antifungal activity against Candida albicans ATCC SC5314 assessed as change in lanosterol level at 4 ug/ml incubated for 48 hrs by LC-MS analysis (reference value: 3.7%); assay type: functional; settings: dose 4 µg/ml
[15] = system: Candida albicans; assay: Induction of morphological changes in Candida albicans assessed as leakage of cellular contents at 4 ug/ml measured after 72 hrs by TEM analysis; assay type: functional, organism-based; settings: dose 4.0 µg/ml
[16] = system: Mus musculus; assay: In vivo antifungal activity against Candida albicans ATCC SC5314 infected mouse assessed as regular arrangement of endothelial tissue at 4 mg/kg, ip administered ever other day for 12 days by hematoxyin-eosin staining based microscopic analysis; assay type: functional, organism-based; settings: time 12.0 day
[17] = system: Candida albicans; assay: Induction of morphological changes in Candida albicans assessed as decrease in osmotic pressure of cells at 4 ug/ml measured after 72 hrs by TEM analysis; assay type: functional, organism-based; settings: dose 4.0 µg/ml
[18] = system: Candida albicans; assay: Induction of apoptosis in Candida albicans ATCC SC5314 cells assessed as early apoptotic cells at 8 ug/ml incubated for 72 hrs by Annexin V-FITC/PI staining based flow cytometry method (reference value: 0.56%); assay type: functional; settings: dose 8 µg/ml
[19] = system: Candida albicans; assay: Induction of morphological changes in Candida albicans assessed as appearance of edema cavitation at 4 ug/ml measured after 72 hrs by TEM analysis; assay type: functional, organism-based; settings: dose 4.0 µg/ml
[20] = target: T1, Squalene epoxidase ERG1 (Candida albicans, UniProt Q92206); assay: Inhibition of SE in Candida albicans ATCC SC5314 incubated for 30 mins using squalene as substrate in presence of NADPH by spectrophotometer analysis
T1 sequence (Q92206 whole entry): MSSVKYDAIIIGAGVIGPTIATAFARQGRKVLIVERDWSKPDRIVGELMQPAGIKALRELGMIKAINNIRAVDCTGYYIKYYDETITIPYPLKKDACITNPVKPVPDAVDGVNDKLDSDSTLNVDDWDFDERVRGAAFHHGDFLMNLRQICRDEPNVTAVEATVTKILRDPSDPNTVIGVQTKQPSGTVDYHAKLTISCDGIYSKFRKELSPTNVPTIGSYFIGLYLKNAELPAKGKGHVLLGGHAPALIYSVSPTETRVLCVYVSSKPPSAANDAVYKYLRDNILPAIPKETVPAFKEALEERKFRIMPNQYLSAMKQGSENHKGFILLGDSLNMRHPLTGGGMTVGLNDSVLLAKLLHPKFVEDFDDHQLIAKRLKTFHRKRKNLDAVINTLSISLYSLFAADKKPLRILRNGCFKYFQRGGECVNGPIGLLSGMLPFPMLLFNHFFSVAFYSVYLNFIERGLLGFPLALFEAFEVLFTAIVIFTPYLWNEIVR

[21] = Hepatotoxicity in mouse infected with Candida albicans ATCC SC5314 assessed as change in plasma AST level at 4 mg/kg, ip administered ever other day for 12 days; assay type: toxicity, organism-based; settings: in vivo, 288 h, time 12 day
[22] = system: Nakaseomyces glabratus; assay: Antifungal activity against Candida glabrata ATCC 0001 assessed as fungal growth inhibition measured after 72 hrs by CLSI protocol based liquid medium dilution method; assay type: functional
[23] = system: Candida albicans; assay: Antifungal activity against Candida albicans ATCC SC5314 assessed as change in unknown sterol level at 4 ug/ml incubated for 48 hrs by LC-MS analysis (reference value: 4.3%); assay type: functional; settings: dose 4 µg/ml
[24] = Toxicity in mouse infected with Candida albicans ATCC SC5314 assessed as pathological changes in heart at 4 mg/kg, ip administered ever other day for 12 days by hematoxylin and eosin staining based histopathological analysis; assay type: organism-based; settings: in vivo, 288 h, time 12 day
[25] = Toxicity in mouse infected with Candida albicans ATCC SC5314 assessed as pathological changes in liver at 4 mg/kg, ip administered ever other day for 12 days by hematoxylin and eosin staining based histopathological analysis; assay type: organism-based; settings: in vivo, 288 h, time 12 day
[26] = system: Candida albicans; assay: Induction of morphological changes in Candida albicans assessed as structural damage in fungal cell wall at 4 ug/ml measured after 48 hrs by TEM analysis; assay type: functional, organism-based; settings: dose 4.0 µg/ml
[27] = system: Candida albicans; assay: Antifungal activity against fluconazole resistant Candida albicans strain 904 assessed as fungal growth inhibition measured after 72 hrs by CLSI protocol based liquid medium dilution method; assay type: functional
[28] = system: Pichia kudriavzevii; assay: Antifungal activity against Candida krusei ATCC 6258 assessed as fungal growth inhibition measured after 72 hrs by CLSI protocol based liquid medium dilution method; assay type: functional
[29] = system: Candida albicans; assay: Antifungal activity against Candida albicans ATCC 10231 assessed as fungal growth inhibition measured after 72 hrs by CLSI protocol based liquid medium dilution method; assay type: functional
[30] = Hepatotoxicity in mouse infected with Candida albicans ATCC SC5314 assessed as change in plasma ALT level at 4 mg/kg, ip administered ever other day for 12 days; assay type: toxicity, organism-based; settings: in vivo, 288 h, time 12 day

CC(C)[C@H](NC(=O)c1cccc2c1OCCO2)C(=O)N[C@@H](Cn1cncn1)c1ccccc1
Activity [1]: 20.8%
Activity [2]: Active
Activity [3]: 43.31%
Activity [4]: 54.5%
Activity [5]: 27.5%
MIC50 [6]: 0.5 µg/mL (≈ 1.11 µM)
Activity [7]: Active
Activity [8]: Non-Toxic
Activity [9]: Non-Toxic
MIC50 [10]: 1 µg/mL (≈ 2.22 µM)
Activity [11]: Active
Drug uptake [12]: Active
Activity [13]: Active
Activity [14]: 16.4%
Activity [15]: Active
Activity [16]: Active
Activity [17]: Active
Activity [18]: 0.41%
Activity [19]: Active
IC50 [20]: 621 nM
Activity [21]: 85.5 IU/L
MIC50 [22]: 0.25 µg/mL (≈ 0.556 µM)
Activity [23]: 6.4%
Activity [24]: Non-Toxic
Activity [25]: Non-Toxic
Activity [26]: Active
MIC50 [27]: 2 µg/mL (≈ 4.45 µM)
MIC50 [28]: 0.25 µg/mL (≈ 0.556 µM)
MIC50 [29]: 0.125 µg/mL (≈ 0.278 µM)
Activity [30]: 50.5 IU/L
